The structures appear in SMILES notation. Like-named read-outs stand apart in the source and are kept apart here. Bounds are passed on as bounds.

In series [1] the test system is rats. As to the kind of experiment: In vivo acute toxicity test (LD50). The settings on record: single dose, 2 weeks observation. As to the method:
In order to determine the acute toxicities of the compounds prepared in Examples, 6-week old specific pathogen-free (SPF) rats each weighing […] were divided into groups of 10 rat each.
In case of subcutaneous administration, each of the compounds was dissolved in 5% PEG400 solution to a concentration of 20 mg/ml, the resulting solution was serially diluted with 5% PEG400 solution to concentrations of 5, 2.5, 1.25 and 0.625 mg/ml, and the dilutions were subcutaneously injected once to the rats at a dose of 10 ml/kg body weight.
In case of oral administration, each of the compounds was dissolved in soybean oil to a concentration of 180 mg/ml, the resulting solution was serially diluted with soybean oil to concentrations of 80, 20 and 5 mg/ml, and the dilutions were orally administered once to the rats at a dose of 20 ml/kg body weight. […]
During 2 weeks after the administration of the compounds, the death rate, clinical symptoms and weight changes of the rats were observed, and hematological and biochemical tests on blood samples were performed. Then, the rats were sacrificed and the internal organs were visually examined to check any abnormal signs in the organs of chest and abdomen.

The subject of series [2] is osteoclasts. As to the kind of experiment: Inhibitory effect on resorption activity of osteoclast (resorption pit area on calcium phosphate-coated plate). Format: cell-based, mice. The settings on record: compared to control. Here is the method: After finishing culture, the plate was washed with distilled water, and 50 μl/well of 5% sodium hypochlorite was added to the plate. The plate was let alone for 5 min, washed again with distilled water to remove the adherent cells, and dried at room temperature. Then, the area of formed resorption pits was calculated by means of Image Pro Plus software (Media Cybernetics Ver. 3.0).

Series [3] concerns osteoclast (TRAP-positive multinuclear cell) formation. As to the kind of experiment: Inhibitory effect on osteoclast formation (TRAP staining). The format is cell-based, mice. The settings on record: compared to control. In a few lines: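 Non-adherent bone marrow cells from 7–9-week-old female mice, 2×10^5 per well, cultured 8 days with M-CSF (20 ng/ml), RANKL (30 ng/ml) and compound at 0.3, 1.0 or 3 μM. Formation scored by TRAP staining after fixation, 1 h at 37 °C, pH 5.0.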

Series [4] is described as follows: In vitro pharmacokinetics: metabolic stability in liver microsome. The format is in vitro ADME. Conditions: human liver microsome 1 mg/ml, 20 μM compound; for half-life at 20 µM: liver microsomes. As to the method:
Metabolic stabilities of the compounds of the Examples were examined by employing microsome samples prepared from the human liver.
Each 20 μM of the compounds were reacted with 1 mg/ml of liver microsome and the half-lives and one-hour stabilities of the compounds were determined.
(In general: Liver microsomes are vesicles of endoplasmic reticulum, rich in cytochrome P450 enzymes.)

Series [5] can be described thus: In vivo pharmacokinetics using female mice (serum concentration, HPLC). The settings on record: I.V.; for clearance / Half-life / Vd: mouse, serum, iv; for clearance: read-out: CL (clearance) (converted); for Half-life: read-out: Half-life (converted); for Vd: read-out: Vd (volume of distribution). Here is the method:
Female mice each weighing […] were divided into groups of 5 mice each. The mice were anesthetized with ether, catheterized in their femoral artery and vein, respectively, and administered with 0.5 mg/kg body weight of compounds 234 and 274, and 5 mg/kg body weight of compounds 388, 404 and 415, respectively, via intravenous injection. Alternatively, 15 mg/kg body weight of compound 274 and 10 mg/kg body weight of compound 234 were orally administered to the mice.
At 0, 5, 10, 15 and 30 minutes and 1, 2, 4, 6, 9 and 12 hours after the intravenous injection, or at 0, 10, 20 and 40 minutes and 1, 2, 4, 6, 9 and 12 hours after the oral administration, 0.3 ml blood samples were taken from the mice through femoral artery. The blood samples were kept on an ice bath for 30 minutes and centrifuged at 3,000 rpm for 10 minutes to obtain a supernatant (serum). The supernatant samples were stored at −20° C.
Standard solution: Compounds 234, 274, 388, 404 and 415 were respectively dissolved in methanol to a concentration of 1 mg/ml to obtain stock solutions. The stock solutions were diluted with methanol to obtain standard solutions having concentrations of 40, 20, 10, 2, 1, 0.5, 0.2, 0.05 and 0.02 μg/ml, respectively.
Standard calibration curve: A stand calibration curve was prepared by employing calibration concentrations of 0.002, 0.005, 0.02, 0.05, 0.1, 0.2, 1, 2 and 4 μg/ml.
10 μl each of the standard solutions prepared above was added to 100 μl of normal serum sample and diluted 10 times. 250 μl of acetonitrile was added to the resulting dilution and the mixture was centrifuged for 10 minutes to obtain a supernatant. 300 μl of the supernatant was dried by evaporation under a nitrogen atmosphere and reconstituted by adding 50 μl of methanol. 20 μl of the resulting solution was analyzed by HPLC to prepare a standard calibration curve. HPLC was performed with Shimadzu ODS2 column (4.6×250 mm, 5 μm by employing a mixture of methanol/water (90/10 (v/v)) as the mobile phase at a flow rate of 1.2 ml/min, and measuring the absorbance at 240 nm.
Extraction: 100 μl of the serum sample obtained in (4-2-1) was put into a 1 ml microtube and 10 μl of methanol was added thereto. 250 μl of acetonitrile was added to the microtube and the mixture was centrifuged for 10 minutes to obtain a supernatant. 300 μl of the supernatant was dried by evaporation under a nitrogen atmosphere and reconstituted by adding 50 μl of methanol. 20 μl of the resulting solution was analyzed by the HPLC method as above.
Average concentrations of the compounds in the serum samples were plotted in a semi-log scale against the time lapsed after the administration, and the pharmacokinetic parameters were determined as a non-compartment open model by employing WinNonlin® program (Pharsight Corporation).

The subject of series [6] is MG-63 cells. The series is described as follows: Cytotoxicity test against osteoblast (MTT). The format is cell-based, human. As to the method: In order examine the toxicities of the compounds of the Examples against osteoclast pregenitors, pregenitor cells were aliquotted onto a 96-well microplate at a density of 2×10^5 cells per well, treated with 2, 4 and 8 μM of the test compounds, respectively, and cultured for 48 hrs in α-MEM supplemented with 20 ng/ml of M-CSF (Peprotech, USA) using 37° C. incubator (5% CO2). At 3 hrs before the culture was finished, 50 μl of MTT (3-(4,5-dimethylthiazol-2-yl)-2,5-diphenyltetrazolium bromide) solution (50 μg/ml) was added to each well. Upon completion of the cell culture, the supernatant was removed, and the precipitated dye was reacted with 100 μl of isopropanol/0.04 N HCl at room temperature for 30 min to dissolve it. The absorbances of the wells were measured at 550 nm, and the relative absorbance of each well relative to that of the control (set as 100) is shown in Table 6.
In order to examine the toxicity of the compounds of the Examples against osteoblasts, human osteosarcoma-derived cell line, MG-63 (ATCC No. CRL-1427) cells were treated with 0.1, 0.3, 1.0 and 3.0 μM of the compounds of the Examples, and cultured in DMEM supplemented with 10% FBS (fetal bovine serum).

[7] abbreviates: Mus musculus, Osteoclast, 0.3 μM (Table 4b), read-out: Osteoclast formation inhibitory effects (%).
Setting [8] is: Mus musculus, Osteoclast, 1 μM (Table 4b), read-out: Osteoclast formation inhibitory effects (%).
The mark [9] stands for this setting: Mus musculus, Osteoclast, 3 μM (Table 4b), read-out: Osteoclast formation inhibitory effects (%).
The mark [10] stands for this setting: 0.3 μM, 8 days culture with M-CSF and RANKL.
[11] abbreviates: 1.0 μM, 8 days culture with M-CSF and RANKL.
Setting [12] is: 3.0 μM, 8 days culture with M-CSF and RANKL.

Usually half-life stands for how long it takes for the measured level to halve. Low values mean rapid decline, high ones slow decline. For `CO/C=C(/C(=O)OC)c1ccc(Cl)cc1COc1ccc(OCC2CC2)cc1`, the LD50 in series [1] (PO) is 100-300 mg/kg body weight; in series [1] (SC), 5 mg/kg body weight. Moreover, the “Reduction (%) of the resorption pit area of osteoclasts” value (“Reduction (%)” for short) in series [2] (0.3 uM), in series [2] (1 uM) and in series [2] (3 uM) was 100% each time. Further, the inhibition at 0.3 µM in series [3] (Mus musculus, Osteoclast, 192 h, 0.3 μM, 8 days culture with M-CSF and RANKL, read-out: Osteoclast formation inhibitory effects (%)) is 98%. Besides, the inhibition at 1 µM in series [3] (Mus musculus, Osteoclast, 192 h, 1.0 μM, 8 days culture with M-CSF and RANKL, read-out: Osteoclast formation inhibitory effects (%)) was 100%. For the same compound, in series [3] (Mus musculus, Osteoclast, 192 h, 3.0 μM, 8 days culture with M-CSF and RANKL, read-out: Osteoclast formation inhibitory effects (%)), the inhibition at 3 µM is 100%. The same compound had an One-hour stability in series [4] of 70%. This compound also registered a half-life at 20 µM in series [4] above 3 h.
The term clearance denotes the rate of elimination divided by the concentration. As a reminder, the Vd is the apparent volume that relates the amount in the body to the concentration in plasma or blood. With `CO/C=C(/C(=O)OC)c1ccccc1COc1cccc(CN2CCOCC2)c1` [Compound No. 404, (E)-methyl-2-[2-((3-(morpholinomethyl)phenoxy)-methyl)phenyl]-3-methoxyacrylate], in series [5], the “AUC (area under the curve of blood concentration versus time)” value was 97.2 ± 14.8 µg·h/mL, the clearance is 0.0567 mL/min, the Half-life is 10.2 ± 1.9 h and the Vd was determined as 0.0462 ± 0.0064 L/kg. In series [3] (setting [7]), the inhibition at 0.3 µM was 9%. Further, the inhibition at 1 µM in series [3] (setting [8]) is 63%. Also, the inhibition at 3 µM in series [3] (setting [9]) amounted to 100%. This compound also had a half-life at 20 µM in series [4] of 0.957 ± 0.0383 h. Also, the “relative absorbance (MTT) relative to control (set as 100)” value in series [6] (0.33 μM compound) is 83. In addition, in series [6] (1 μM compound), the “relative absorbance (MTT) relative to control (set as 100)” value worked out at 92. For the same compound, in series [6] (3 μM compound), the “relative absorbance (MTT) relative to control (set as 100)” value is listed as 94.
Consider `CO/C=C(/C(=O)OC)c1ccccc1COc1cccc(N2CCCC2)n1` [Compound No. 415, (E)-methyl-2-[2-((6-(pyrrolidin-1-yl)pyridin-2-yloxy)-methyl)phenyl]-3-methoxyacrylate], for which, in series [5], the “AUC (area under the curve of blood concentration versus time)” value was found to be 176.4 ± 32.9 µg·h/mL, the clearance was 0.0317 mL/min, the Half-life is 10.8 ± 1.61 h and the distribution volume (Vd) was found to be 0.027 ± 0.0012 L/kg. For the same compound, the inhibition at 0.1 µM in series [3] (Mus musculus, Osteoclast, 0.1 μM (Table 4b), read-out: Osteoclast formation inhibitory effects (%)) was determined as 5%. Also, the inhibition at 0.3 µM in series [3] (setting [7]) is 57%. The inhibition at 1 µM in series [3] (setting [8]) was found to be 100%. Moreover, the inhibition at 3 µM in series [3] (setting [9]) was determined as 100%. The same compound yielded a half-life at 20 µM in series [4] of 0.415 h.
For the compound `CCCCCCOc1cccc(/C(C)=N/OCc2ccccc2/C(=C\OC)C(=O)OC)c1` [compound 15, (E)-methyl 2-(((({1E}-1-(3-(n-hexyloxy)phenyl)ethylidene)amino)oxy)methyl)phenyl-3-methoxyacrylate], the LD50 in series [1] (PO) is recorded as above 2000 mg/kg body weight; in series [1] (SC), above 50 mg/kg body weight. Moreover, the “Reduction (%)” value in series [2] (0.3 uM) is 41%; in series [2] (1 uM), 57%; in series [2] (3 uM) it was 93%. The “Osteoclast formation inhibitory effects (%)” value in series [3] (setting [10]) was 92%; in series [3] (setting [11]), 100%; in series [3] (setting [12]), 100%. Also, the Half-life in series [4] was 0.615 h. The same compound showed an One-hour stability in series [4] of 33%. For the same compound, the “relative absorbance relative to that of the control (set as 100), MTT” value in series [6] (0.33 uM) was found to be 105; in series [6] (1 uM), 85; in series [6] (3 uM), 76.
On to `CO/C=C(/C(=O)OC)c1ccccc1COc1cccc(C(C)F)c1` (centres unmarked) [compound 169], for which the LD50 is reported as above 1000 mg/kg body weight in series [1] (PO) and 10 mg/kg body weight in series [1] (SC).
Regarding `C=CCOc1ccc(OCc2ccccc2/C(=C\OC)C(=O)OC)cc1` [compound 179], the LD50 in series [1] (PO) is listed as 500 mg/kg body weight; in series [1] (SC), 42 mg/kg body weight. The results for the “Reduction (%)” value in series [2] (0.3 uM), in series [2] (1 uM) and in series [2] (3 uM) were 86%, 100% and 100%, respectively. In addition, the results for the “Osteoclast formation inhibitory effects (%)” value in series [3] (setting [10]), in series [3] (setting [11]) and in series [3] (setting [12]) were 84%, 100% and 100%, respectively. In series [4], the Half-life is above 3 h. Also, the One-hour stability in series [4] amounted to 70%. Moreover, the “relative absorbance relative to that of the control (set as 100), MTT” value in series [6] (0.11 uM) amounted to 117; in series [6] (0.33 uM), 111; in series [6] (1 uM) it was 108; in series [6] (3 uM), 106.

Source of the values: patent US7879835B2 (Korea Research Institute of Chemical Technology, priority 2004, dated 2011).
